# Experiments:
# G1 APOL1 = target: T1, G1 APOL1 (Homo sapiens, UniProt O14791, I384M/S342G); assay: Acute APOL1 Thallium Assay with Inducible Stable Clones of HEK 293 Cells; type: cell-based; settings: HEK 293 inducible stable clones, G1 APOL1; read-out: Thallium Assay (IC50)
# T1 construct: expressed in transfected cells
# T1 sequence (O14791 28-398 S342G/I384M): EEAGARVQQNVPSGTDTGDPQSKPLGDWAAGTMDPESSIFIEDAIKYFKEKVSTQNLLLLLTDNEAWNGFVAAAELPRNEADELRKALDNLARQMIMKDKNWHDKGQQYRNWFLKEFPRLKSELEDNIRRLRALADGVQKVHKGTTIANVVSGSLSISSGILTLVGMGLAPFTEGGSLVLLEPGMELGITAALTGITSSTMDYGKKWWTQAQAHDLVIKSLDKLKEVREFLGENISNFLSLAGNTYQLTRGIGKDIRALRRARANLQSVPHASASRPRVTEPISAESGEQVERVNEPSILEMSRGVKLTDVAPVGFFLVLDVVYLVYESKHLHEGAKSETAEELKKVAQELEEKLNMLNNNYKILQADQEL
# Outline: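 Pore activity was read as the fluorescence increase from Tl+ entering cells loaded with an AM-ester thallium indicator dye. The cells were tetracycline-inducible HEK293 T-Rex expressing G1 APOL1 (clone DC3.25), induced when plated at 26000 per well and incubated at 37° C.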
# APOL1 G1 Protein = target: T2, APOL1 G1 Protein (Homo sapiens, UniProt O14791, I384M/S342G); assay: Trypanosoma brucei brucei Lysis Assay Using APOL1 Recombinant Protein (AlamarBlue viability); type: cell-based; settings: read-out: Trypanosomal Assay (IC50)
# T2 sequence (O14791 28-398 S342G/I384M): T1 sequence (O14791 28-398 S342G/I384M)
# Outline: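 Lister 427 bloodstream-form trypanosomes seeded at 120,000 per well in phenol-red-free, serum-free medium and lysed with recombinant APOL1 variant protein. Viability read by AlamarBlue (resazurin) fluorescence. Percent viability relative to untreated wells, interpolated from a standard curve of seeded parasites.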
smiles,measurement,setting,value
"NCCCCc1c(-c2ccc(F)cc2)[nH]c2c(F)cc(F)cc12 [Compound 511, 4-[5,7-difluoro-2-(4-fluorophenyl)-1H-indol-3-yl]butan-1-amine]",IC50,G1 APOL1,< 0.25 µM
same,IC50,APOL1 G1 Protein,< 0.25 µM
NC(=O)[C@H](CO)NC(=O)CCc1c(-c2ccc(F)cc2)[nH]c2c(F)cc(F)cc12 [Compound 123],IC50,G1 APOL1,> 1 µM
same,IC50,APOL1 G1 Protein,> 1 µM
O=C(CCc1c(-c2ccc(F)cc2)[nH]c2ccc(F)cc12)N[C@H]1C[C@@H]1c1ccccc1 [Compound 23],IC50,G1 APOL1,> 1 µM
same,IC50,APOL1 G1 Protein,> 1 µM
O=C(CCO)NCCc1c(-c2ccc(F)cc2)[nH]c2c(F)cc(F)cc12 [Compound 361],IC50,G1 APOL1,0.25 to 1 µM
same,IC50,APOL1 G1 Protein,0.25 to 1 µM
Cc1cc(NC(=O)CCc2c(-c3ccc(F)cc3)[nH]c3c(F)cc(F)cc23)no1 [Compound 180],IC50,G1 APOL1,> 1 µM
same,IC50,APOL1 G1 Protein,> 1 µM
"CC(=O)NCCSc1c(-c2ccc(F)cc2)[nH]c2c(F)cc(F)cc12 [Compound 509, N-[2-[[5,7-difluoro-2-(4-fluorophenyl)-1H-indol-3-yl]sulfanyl]ethyl]acetamide]",IC50,G1 APOL1,< 0.25 µM
same,IC50,APOL1 G1 Protein,< 0.25 µM
NC(=O)CCc1c(-c2ccc(F)cc2)[nH]c2ccc(F)cc12 [Compound 68],IC50,G1 APOL1,> 1 µM
same,IC50,APOL1 G1 Protein,> 1 µM
O=C(CCc1c(-c2ccc(F)cc2)[nH]c2c(F)cc(F)cc12)NCC1(CO)COC1 [Compound 140],IC50,G1 APOL1,> 1 µM
same,IC50,APOL1 G1 Protein,> 1 µM
CC1(NC(=O)CCc2c(-c3ccc(F)cc3)[nH]c3ccc(F)cc23)COC1 [Compound 16],IC50,G1 APOL1,> 1 µM
same,IC50,APOL1 G1 Protein,0.25 to 1 µM
O=C(CCc1c(-c2ccc(F)cc2)[nH]c2c(F)cc(F)cc12)N1CC[C@@H]1CO [Compound 112],IC50,G1 APOL1,> 1 µM
same,IC50,APOL1 G1 Protein,0.25 to 1 µM
O=C(CCc1c(-c2ccc(F)cc2)[nH]c2ccc(F)cc12)NC1(CO)COC1 [Compound 32],IC50,G1 APOL1,0.25 to 1 µM
same,IC50,APOL1 G1 Protein,0.25 to 1 µM
O=C(CCc1c(-c2ccc(F)cc2)[nH]c2ccc(F)cc12)NCC1COC1 [Compound 43],IC50,G1 APOL1,> 1 µM
same,IC50,APOL1 G1 Protein,> 1 µM
CC(O)C(=O)NCCCc1c(-c2ccc(F)cc2)[nH]c2ccc(F)cc12 (racemic) [Compound 507],IC50,G1 APOL1,< 0.25 µM
same,IC50,APOL1 G1 Protein,0.25 to 1 µM
CC(CN)NC(=O)CCc1c(-c2ccc(F)cc2)[nH]c2ccc(F)cc12 (racemic) [Compound 5],IC50,G1 APOL1,> 1 µM
same,IC50,APOL1 G1 Protein,> 1 µM
O=C(CCc1c(-c2ccc(F)cc2)[nH]c2c(F)cc(F)cc12)NC(CO)CF (centres unmarked) [Compound 99],IC50,G1 APOL1,< 0.25 µM
same,IC50,APOL1 G1 Protein,< 0.25 µM
O=C(CCc1c(-c2ccc(F)cc2)[nH]c2c(F)cc(F)cc12)NCc1ccc(Cl)s1 [Compound 130],IC50,G1 APOL1,> 1 µM
same,IC50,APOL1 G1 Protein,> 1 µM
O=C(CCc1c(-c2ccc(F)cc2)[nH]c2ccc(F)cc12)NC1CC(F)(F)C1 [Compound 47],IC50,G1 APOL1,0.25 to 1 µM
same,IC50,APOL1 G1 Protein,> 1 µM
CC(NC(=O)CCc1c(-c2ccc(F)cc2)[nH]c2c(F)cc(F)cc12)c1ccn(C)n1 (racemic) [Compound 133],IC50,G1 APOL1,0.25 to 1 µM
same,IC50,APOL1 G1 Protein,> 1 µM
COCCNC(=O)CCc1c(-c2ccc(F)cc2)[nH]c2c(F)cc(F)cc12 [Compound 164],IC50,G1 APOL1,> 1 µM
same,IC50,APOL1 G1 Protein,> 1 µM
O=C(CCc1c(-c2ccc(F)cc2)[nH]c2ccc(F)cc12)N[C@H]1C[C@H](O)C1 [Compound 84],IC50,G1 APOL1,> 1 µM
same,IC50,APOL1 G1 Protein,> 1 µM
O=C(CCc1c(-c2ccc(F)cc2)[nH]c2c(F)cc(F)cc12)NCc1cnn(CC(F)(F)F)c1 [Compound 186],IC50,G1 APOL1,> 1 µM
same,IC50,APOL1 G1 Protein,> 1 µM
"CC(=O)NCC(F)(F)Cc1c(-c2ccc(F)cc2)[nH]c2c(F)cc(F)cc12 [Compound 515, N-[3-[5,7-difluoro-2-(4-fluorophenyl)-1H-indol-3-yl]-2,2-difluoro-propyl]acetamide]",IC50,G1 APOL1,0.25 to 1 µM
same,IC50,APOL1 G1 Protein,0.25 to 1 µM
CN(CC(N)=O)C(=O)CCc1c(-c2ccc(F)cc2)[nH]c2c(F)cc(F)cc12 [Compound 150],IC50,G1 APOL1,> 1 µM
same,IC50,APOL1 G1 Protein,> 1 µM
O=C(CCc1c(-c2ccc(F)cc2)[nH]c2c(F)cc(F)cc12)NC1(CO)CCOC1 (centres unmarked) [Compound 116],IC50,G1 APOL1,> 1 µM
same,IC50,APOL1 G1 Protein,> 1 µM
O=C(CCc1c(-c2ccc(F)cc2)[nH]c2c(F)cc(F)cc12)NCCC(=O)N1CC(O)C1 [Compound 191],IC50,G1 APOL1,> 1 µM
same,IC50,APOL1 G1 Protein,> 1 µM
CC1(O)CCN(C(=O)CCc2c(-c3ccc(F)cc3)[nH]c3ccc(F)cc23)C1 (racemic) [Compound 88],IC50,G1 APOL1,> 1 µM
same,IC50,APOL1 G1 Protein,> 1 µM
O=C(CCc1c(-c2ccccc2)[nH]c2ccc(F)cc12)NCCO [Compound 236],IC50,G1 APOL1,> 1 µM
same,IC50,APOL1 G1 Protein,> 1 µM
CC(C)(C)OC(=O)N[C@H]1C[C@@H](NC(=O)CCc2c(-c3ccc(F)cc3)[nH]c3ccc(F)cc23)C1 [Compound 83],IC50,G1 APOL1,> 1 µM
same,IC50,APOL1 G1 Protein,> 1 µM
C[C@@H](CO)NC(=O)CCc1c(-c2ccc(F)cc2)[nH]c2c(F)cc(F)cc12 [Compound 109],IC50,G1 APOL1,0.25 to 1 µM
same,IC50,APOL1 G1 Protein,0.25 to 1 µM
Cc1cnc(NC(=O)CCc2c(-c3ccc(F)cc3)[nH]c3c(F)cc(F)cc23)o1 [Compound 172],IC50,G1 APOL1,> 1 µM
same,IC50,APOL1 G1 Protein,> 1 µM
C[C@H](O)CNC(=O)CCc1c(-c2ccc(F)cc2)[nH]c2ccc(F)cc12 [Compound 78],IC50,G1 APOL1,> 1 µM
same,IC50,APOL1 G1 Protein,> 1 µM
O=C(CCc1c(-c2ccc(F)cc2)[nH]c2ccc(F)cc12)N[C@H]1C[C@@H](O)C1 [Compound 87],IC50,G1 APOL1,> 1 µM
same,IC50,APOL1 G1 Protein,> 1 µM
O=C(CCc1c(-c2ccc(F)cc2)[nH]c2c(F)cc(F)cc12)N1CC[C@H]1CO [Compound 138],IC50,G1 APOL1,> 1 µM
same,IC50,APOL1 G1 Protein,> 1 µM
O=C(CCc1c(-c2ccc(F)cc2)[nH]c2ccc(F)cc12)NCC(F)(F)F [Compound 39],IC50,G1 APOL1,0.25 to 1 µM
same,IC50,APOL1 G1 Protein,> 1 µM
CC(C)(NC(=O)CCc1c(-c2ccc(F)cc2)[nH]c2ccc(F)cc12)C(N)=O [Compound 17],IC50,G1 APOL1,0.25 to 1 µM
same,IC50,APOL1 G1 Protein,0.25 to 1 µM
C[C@@H](CO)NC(=O)CCc1c(-c2ccc(F)cc2)[nH]c2ccc(F)cc12 [Compound 31],IC50,G1 APOL1,> 1 µM
same,IC50,APOL1 G1 Protein,0.25 to 1 µM
O=C(CCc1c(-c2ccc(F)cc2)[nH]c2c(F)cc(F)cc12)NCc1cnn(C2CC(F)(F)C2)c1 [Compound 176],IC50,G1 APOL1,> 1 µM
same,IC50,APOL1 G1 Protein,> 1 µM
N[C@H]1C[C@@H](NC(=O)CCc2c(-c3ccc(F)cc3)[nH]c3ccc(F)cc23)C1 [Compound 10],IC50,G1 APOL1,> 1 µM
same,IC50,APOL1 G1 Protein,> 1 µM
O=C1CCC(NC(=O)CCc2c(-c3ccc(F)cc3)[nH]c3c(F)cc(F)cc23)C(=O)N1 (centres unmarked) [Compound 190],IC50,G1 APOL1,> 1 µM
same,IC50,APOL1 G1 Protein,> 1 µM
O=C(CCc1c(-c2ccc(F)cc2)[nH]c2ccc(F)cc12)Nc1cc[nH]n1 [Compound 70],IC50,G1 APOL1,0.25 to 1 µM
same,IC50,APOL1 G1 Protein,> 1 µM
